In patent US20060014644A1, “Phenylsulfonyl ureas, process for their preparation and their use as herbicides and plant growth regulators” (Hoechst Schering AgrEvo GmbH, priority 1999, published 2006):

Tests used:
[1] = tested on: harmful plants such as Sinapis alba, Chrysanthemum segetum, Avena sativa, Stellaria media, Echinochloa crus-galli, Lolium multiflorum, Setaria spp., Abutilon …; assay: Pre-emergence effect on weeds (greenhouse pot test, visual scoring); type: in vivo, monocotyledonous and dicotyledonous weed plants; settings: application rate of 0.3 kg and less of active substance per hectar, scored visually after 3 to 4 weeks by comparison with untreated controls
Source text: 1. Pre-Emergence Effect on Weeds
Seeds or rhizome pieces of monocotyledonous and dicotyledonous weed plants were placed in sandy loam soil in cardboard pots and covered with soil. The compounds according to the invention which were formulated in the form of wettable powders or emulsion concentrates were then applied to the surface of the soil cover in the form of aqueous suspensions or emulsions at an application rate of 600 to 800 l of water/ha (converted), in various dosages.
After the treatment, the pots were placed in a greenhouse and kept under good growth conditions for the weeds. After the test plants had emerged, the damage to the plants or the negative effect on the emergence was scored visually after a test period of 3 to 4 weeks by comparison with untreated controls. As shown by the test results, compounds according to the invention have good herbicidal pre-emergence activity against a broad spectrum of weed grasses and broad-leafed weeds.

[2] = tested on: harmful plants such as Sinapis alba, Echinochloa crus-galli, Lolium multiflorum, Chrysanthemum segetum, Setaria spp., Abutilon theophrasti, Amaranthus …; assay: Post-emergence effect on weeds (greenhouse pot test, visual scoring); type: in vivo, monocotyledonous and dicotyledonous weeds; settings: three-leaf stage, application rate of 0.3 kg and less of active substance per hectare, scored visually after about 3 to 4 weeks by comparison with untreated controls
Experimental: 2. Post-Emergence Effect on Weeds
Seeds or rhizome pieces of monocotyledonous and dicotyledonous weeds were placed in sandy loam soil in plastic pots, covered with soil and grown in a greenhouse under good growth conditions. Three weeks after sowing, the test plants were treated at the three-leaf stage. The compounds according to the invention which were formulated as wettable powders or emulsion concentrates were sprayed, at various dosages, onto the green parts of the plants at an application rate of 600 to 800 l of water/ha (converted). After the test plants had remained in the greenhouse for about 3 to 4 weeks under ideal growth conditions, the effect of the preparations was scored visually by comparison with untreated controls. The agents according to the invention also have good herbicidal activity post-emergence against a broad spectrum of economically important Weed grasses and broad-loafed weeds.

Row | SMILES | herbicidal activity against harmful plants, pre-emergence [1] | herbicidal activity against harmful plants, post-emergence [2]
1 | COc1nc(NC(=O)NS(=O)(=O)c2cccc(N)c2C(=O)O)nc(OC)n1 [Example 1-9] | very good herbicidal activity | very good herbicidal activity
2 | COC(=O)c1c(N)cccc1S(=O)(=O)NC(=O)Nc1nc(OC)cc(OC)n1 [Example 1-11] | very good herbicidal activity | very good herbicidal activity
3 | COC(=O)c1c(N)cccc1S(=O)(=O)NC(=O)Nc1nc(C)nc(OC)n1 [Example 1-15] | very good herbicidal activity | very good herbicidal activity
4 | COC(=O)c1c(N)cccc1S(=O)(=O)[N-]C(=O)Nc1nc(C)nc(OC)n1.[Na+] [Example 1-16] | very good herbicidal activity | very good herbicidal activity
5 | COC(=O)c1c(N)cccc1S(=O)(=O)NC(=O)Nc1nc(C)cc(OC)n1 [Example 1-17] | very good herbicidal activity | very good herbicidal activity
6 | COC(=O)c1c(N)cccc1S(=O)(=O)NC(=O)Nc1nc(Cl)cc(OC)n1 [Example 1-23] | very good herbicidal activity | very good herbicidal activity
7 | COC(=O)c1c(N)cccc1S(=O)(=O)NC(=O)Nc1nc(OC)nc(OC)n1 [Example 1-25] | very good herbicidal activity | very good herbicidal activity
8 | COC(=O)c1c(N)cccc1S(=O)(=O)[N-]C(=O)Nc1nc(OC)nc(OC)n1.[Na+] [Example 1-26] | very good herbicidal activity | very good herbicidal activity
9 | COC(=O)c1c(N)cccc1S(=O)(=O)NC(=O)Nc1nc(OC(F)F)cc(OC(F)F)n1 [Example 1-41] | very good herbicidal activity | very good herbicidal activity
10 | CCOC(=O)c1c(N)cccc1S(=O)(=O)NC(=O)Nc1nc(OC)cc(OC)n1 [Example 1-45] | very good herbicidal activity | very good herbicidal activity
11 | CCOC(=O)c1c(N)cccc1S(=O)(=O)NC(=O)Nc1nc(C)nc(OC)n1 [Example 1-47] | very good herbicidal activity | very good herbicidal activity
12 | CCOC(=O)c1c(N)cccc1S(=O)(=O)NC(=O)Nc1nc(Cl)cc(OC)n1 [Example 1-55] | very good herbicidal activity | very good herbicidal activity
13 | CCOC(=O)c1c(N)cccc1S(=O)(=O)NC(=O)Nc1nc(OC)nc(OC)n1 [Example 1-57] | very good herbicidal activity | very good herbicidal activity
14 | CNc1cccc(S(=O)(=O)NC(=O)Nc2nc(OC)cc(OC)n2)c1C(=O)OC [Example 1-105] | very good herbicidal activity | very good herbicidal activity
15 | CCNc1cccc(S(=O)(=O)NC(=O)Nc2nc(OC)cc(OC)n2)c1C(=O)OC [Example 1-129] | very good herbicidal activity | very good herbicidal activity
16 | CCNc1cccc(S(=O)(=O)NC(=O)Nc2nc(C)nc(OC)n2)c1C(=O)OC [Example 1-131] | very good herbicidal activity | very good herbicidal activity
17 | CCNc1cccc(S(=O)(=O)NC(=O)Nc2nc(OC)nc(OC)n2)c1C(=O)OC [Example 1-135] | very good herbicidal activity | very good herbicidal activity
18 | COC(=O)c1c(NC(C)C)cccc1S(=O)(=O)NC(=O)Nc1nc(OC)cc(OC)n1 [Example 1-153] | very good herbicidal activity | very good herbicidal activity
19 | COC(=O)c1c(NC(C)C)cccc1S(=O)(=O)[N-]C(=O)Nc1nc(OC)cc(OC)n1.[Na+] [Example 1-154] | very good herbicidal activity | very good herbicidal activity
20 | COC(=O)c1c(NC(C)C)cccc1S(=O)(=O)NC(=O)Nc1nc(C)nc(OC)n1 [Example 1-155] | very good herbicidal activity | very good herbicidal activity
21 | COC(=O)c1c(NC(C)C)cccc1S(=O)(=O)NC(=O)Nc1nc(OC)nc(OC)n1 [Example 1-159] | very good herbicidal activity | very good herbicidal activity
22 | COC(=O)c1c(NCC(C)C)cccc1S(=O)(=O)NC(=O)Nc1nc(OC)cc(OC)n1 [Example 1-177] | very good herbicidal activity | very good herbicidal activity
23 | COC(=O)c1c(NCC(C)C)cccc1S(=O)(=O)NC(=O)Nc1nc(C)nc(OC)n1 [Example 1-179] | very good herbicidal activity | very good herbicidal activity
24 | CCOC(=O)c1c(NCC(C)C)cccc1S(=O)(=O)NC(=O)Nc1nc(Cl)cc(OC)n1 [Example 1-189] | very good herbicidal activity | very good herbicidal activity
25 | COC(=O)c1c(NCCCC(F)(F)F)cccc1S(=O)(=O)NC(=O)Nc1nc(OC)cc(OC)n1 [Example 1-241] | very good herbicidal activity | very good herbicidal activity
26 | COC(=O)c1c(NCCCC(F)(F)F)cccc1S(=O)(=O)NC(=O)Nc1nc(C)nc(OC)n1 [Example 1-243] | very good herbicidal activity | very good herbicidal activity
27 | COC(=O)c1c(NCCCC(F)(F)F)cccc1S(=O)(=O)NC(=O)Nc1nc(OC)nc(OC)n1 [Example 1-247] | very good herbicidal activity | very good herbicidal activity
28 | CCC(C)Nc1cccc(S(=O)(=O)NC(=O)Nc2nc(OC)cc(OC)n2)c1C(=O)OC (stereo not drawn) [Example 1-265] | very good herbicidal activity | very good herbicidal activity
29 | CCC(C)Nc1cccc(S(=O)(=O)NC(=O)Nc2nc(C)nc(OC)n2)c1C(=O)OC (stereo not drawn) [Example 1-267] | very good herbicidal activity | very good herbicidal activity
30 | CCC(C)Nc1cccc(S(=O)(=O)NC(=O)Nc2nc(OC)nc(OC)n2)c1C(=O)OC (stereo not drawn) [Example 1-271] | very good herbicidal activity | very good herbicidal activity
